Reference: patent US12097173B2, “Volatile organic compound formulations having antimicrobial activity” (priority 2019, dated 2024)

How the values were obtained:
Type in all cases: cell-based
Escherichia coli = experiment: plate bioassay of volatile test mixtures, relative growth of streak; details: relative growth after 30 hr at 22° C.; esters with 1:1 v/v propanoic acid and isobutryic acid (7:2 v/v), 9 ul; acids 7 ul
Description: (§1) FIG. 1 illustrates a plate bioassay to determine the bioactivity of various esters when combined with a 1:1 mix of the two organic acids as per Table 2. The test organisms were as follows—Cercospora (dark-lower left bottom) then clockwise—Phytophthora, Verticillium, Sclerotinia, Pythium. Fusarium, Trichoderma, Rhizoctonia, and Aspergillus. The streaks were Saccharomyces (far right bottom) then Candida, E coli and Bacillus (left bottom). A=control plate, and B=plate with System 1 after incubation for 30 hr.
(§2) FIG. 9 depicts the biological activities of various test mixtures against a panel of test microbes. A small plug of each organism was placed in the periphery of the PDA plate. In the center well was placed the test solution in the plastic cup holder. A control plate (A) was also set up. After 30 hr the growth of the test organisms was compared to that of the control and the % inhibition was calculated. The (B) plate contained the test mixture. Measurements were made 30 hr after plate set up.
(§3) FIG. 1. Indicates how the assays were done to yield the data sets in Table 1. The various esters were combined with a 1:1 mixture of propanoic acid and isobutryic acid and these were added 7:2 V/V with the ester to be tested.
(§4) Shown in Table 1, are the inhibition and killing effects of propanoic acid, and isobutryic acid together and alone and with various esters. The tests were conducted over the course of 30 hr at 22° C. Measurements were made on appropriate controls and thus the percentage of inhibition calculations could be made on treatments vs the growth on a control organism (non-treated). The bacteria and yeast like organisms were evaluated on the basis of relative growth rates after 30 hr. Those highlighted areas on the table show those compounds (esters) having the most compatibility with propanoic and isobutryic acid 1:1 v/v mixtures with the appropriate esters at a 7:2 ratio—Systems 1 and 2 above. It is from this test that Systems 1 and 2 were discovered. The acids were added at […] individually and combination of the esters with the acids were added at the […] in the plate assay.
as §2, with “Tests were conducted as similarly described for Systems 1 and 2 above (FIG. 9) to ascertain” for “FIG. 9 depicts”

Bacillus subtilus = experiment: as above; details: relative growth after 30 hr at 22° C.; esters with 1:1 v/v propanoic acid and isobutryic acid (7:2 v/v), 9 ul; acids 7 ul
Description: as §1, §2, §3, §4
as §2, with “Tests were conducted as similarly described for Systems 1 and 2 above (FIG. 9) to ascertain” for “FIG. 9 depicts”

Candida albicans = experiment: as above; details: relative growth after 30 hr at 22° C.; esters with 1:1 v/v propanoic acid and isobutryic acid (7:2 v/v), 9 ul; acids 7 ul
Description: as §1, §2, §3, §4
as §2, with “Tests were conducted as similarly described for Systems 1 and 2 above (FIG. 9) to ascertain” for “FIG. 9 depicts”

Saccharomyces cerevicae = experiment: as above; details: relative growth after 30 hr at 22° C.; esters with 1:1 v/v propanoic acid and isobutryic acid (7:2 v/v), 9 ul; acids 7 ul
Description: as §1, §2, §3, §4
as §2, with “Tests were conducted as similarly described for Systems 1 and 2 above (FIG. 9) to ascertain” for “FIG. 9 depicts”

Rhizoctonia solani = experiment: plate bioassay of volatile test mixtures, growth inhibition; details: 30 hr at 22° C.; esters with 1:1 v/v propanoic acid and isobutryic acid (acids to ester 7:2 v/v), 9 ul; acids 7 ul
Description: as §1, §2, §3, §4
as §2, with “Tests were conducted as similarly described for Systems 1 and 2 above (FIG. 9) to ascertain” for “FIG. 9 depicts”

Cercospora beticola = experiment: as above; details: 30 hr at 22° C.; esters with 1:1 v/v propanoic acid and isobutryic acid (acids to ester 7:2 v/v), 9 ul; acids 7 ul
Description: as §1, §2, §3, §4
as §2, with “Tests were conducted as similarly described for Systems 1 and 2 above (FIG. 9) to ascertain” for “FIG. 9 depicts”

Verticillium dahliae = experiment: as above; details: 30 hr at 22° C.; esters with 1:1 v/v propanoic acid and isobutryic acid (acids to ester 7:2 v/v), 9 ul; acids 7 ul
Description: as §1, §2, §3, §4
as §2, with “Tests were conducted as similarly described for Systems 1 and 2 above (FIG. 9) to ascertain” for “FIG. 9 depicts”

Phytophthora cinnamomi = experiment: as above; details: 30 hr at 22° C.; esters with 1:1 v/v propanoic acid and isobutryic acid (acids to ester 7:2 v/v), 9 ul; acids 7 ul
Description: as §1, §2, §3, §4
as §2, with “Tests were conducted as similarly described for Systems 1 and 2 above (FIG. 9) to ascertain” for “FIG. 9 depicts”

Pythium ultimum = experiment: as above; details: 30 hr at 22° C.; esters with 1:1 v/v propanoic acid and isobutryic acid (acids to ester 7:2 v/v), 9 ul; acids 7 ul
Description: as §1, §2, §3, §4
as §2, with “Tests were conducted as similarly described for Systems 1 and 2 above (FIG. 9) to ascertain” for “FIG. 9 depicts”

Trichoderma viridae = experiment: as above; details: 30 hr at 22° C.; esters with 1:1 v/v propanoic acid and isobutryic acid (acids to ester 7:2 v/v), 9 ul; acids 7 ul
Description: as §1, §2, §3, §4
as §2, with “Tests were conducted as similarly described for Systems 1 and 2 above (FIG. 9) to ascertain” for “FIG. 9 depicts”

Sclerotinia sclerotiorum = experiment: as above; details: 30 hr at 22° C.; esters with 1:1 v/v propanoic acid and isobutryic acid (acids to ester 7:2 v/v), 9 ul; acids 7 ul
Description: as §1, §2, §3
The tests were conducted over the course of 30 hr at 22° C. Measurements were made on appropriate controls and thus the percentage of inhibition calculations could be made on treatments vs the growth on a control organism (non-treated). The bacteria and yeast like organisms were evaluated on the basis of relative growth rates after 30 hr. […] The acids were added at […] individually and combination of the esters with the acids were added at the […] in the plate assay.
as §2, with “Tests were conducted as similarly described for Systems 1 and 2 above (FIG. 9) to ascertain” for “FIG. 9 depicts”

Aspergillus fumigatus = experiment: as above; details: 30 hr at 22° C.; esters with 1:1 v/v propanoic acid and isobutryic acid (acids to ester 7:2 v/v), 9 ul; acids 7 ul
Description: as §1, §3, §4

Fusarium subglutinans = experiment: as above; details: 30 hr at 22° C.; esters with 1:1 v/v propanoic acid and isobutryic acid (acids to ester 7:2 v/v), 9 ul; acids 7 ul
Description: as §1, §3, §4

CCCCOC(=O)C(C)C [Butyl Isobutyrate]
growth of Escherichia coli (Escherichia coli): No Growth | growth of Bacillus subtilus (Bacillus subtilus): No Growth | growth of Candida albicans (Candida albicans): Growth Observed | growth of Saccharomyces cerevicae (Saccharomyces cerevicae): Growth Observed | inhibition of Rhizoctonia solani (Rhizoctonia solani): 97% | inhibition of Cercospora beticola (Cercospora beticola): 95% | inhibition of Verticillium dahliae (Verticillium dahliae): 60% | inhibition of Phytophthora cinnamomi (Phytophthora cinnamomi): 0% | inhibition of Pythium ultimum (Pythium ultimum): 100% | inhibition of Trichoderma viridae (Trichoderma viridae): 40% | inhibition of Sclerotinia sclerotiorum (Sclerotinia sclerotiorum): 0% | inhibition of Aspergillus fumigatus (Aspergillus fumigatus): 0% | inhibition of Fusarium subglutinans (Fusarium subglutinans): 0%

CCOC(=O)C(C)C [Ethyl Isobutyrate]
growth of Escherichia coli (Escherichia coli): No Growth | growth of Bacillus subtilus (Bacillus subtilus): No Growth | growth of Candida albicans (Candida albicans): Growth Observed | growth of Saccharomyces cerevicae (Saccharomyces cerevicae): Growth Observed | inhibition of Rhizoctonia solani (Rhizoctonia solani): 100% | inhibition of Cercospora beticola (Cercospora beticola): 95% | inhibition of Verticillium dahliae (Verticillium dahliae): 80% | inhibition of Phytophthora cinnamomi (Phytophthora cinnamomi): 100% | inhibition of Pythium ultimum (Pythium ultimum): 100% | inhibition of Trichoderma viridae (Trichoderma viridae): 67% | inhibition of Sclerotinia sclerotiorum (Sclerotinia sclerotiorum): 90% | inhibition of Aspergillus fumigatus (Aspergillus fumigatus): 80% | inhibition of Fusarium subglutinans (Fusarium subglutinans): 67%

CCCC(=O)OCCC(C)C [Isoamyl Butyrate]
growth of Escherichia coli (Escherichia coli): No Growth | growth of Bacillus subtilus (Bacillus subtilus): No Growth | growth of Candida albicans (Candida albicans): No Growth | growth of Saccharomyces cerevicae (Saccharomyces cerevicae): Growth Observed | inhibition of Rhizoctonia solani (Rhizoctonia solani): 100% | inhibition of Cercospora beticola (Cercospora beticola): 100% | inhibition of Verticillium dahliae (Verticillium dahliae): 100% | inhibition of Phytophthora cinnamomi (Phytophthora cinnamomi): 100% | inhibition of Pythium ultimum (Pythium ultimum): 100% | inhibition of Trichoderma viridae (Trichoderma viridae): 90% | inhibition of Sclerotinia sclerotiorum (Sclerotinia sclerotiorum): 95% | inhibition of Aspergillus fumigatus (Aspergillus fumigatus): 90% | inhibition of Fusarium subglutinans (Fusarium subglutinans): 100%

CC(C)CCOC(=O)C(C)C [Isoamyl Isobutyrate]
growth of Escherichia coli (Escherichia coli): No Growth | growth of Bacillus subtilus (Bacillus subtilus): No Growth | growth of Candida albicans (Candida albicans): Growth Observed | growth of Saccharomyces cerevicae (Saccharomyces cerevicae): Growth Observed | inhibition of Rhizoctonia solani (Rhizoctonia solani): 100% | inhibition of Cercospora beticola (Cercospora beticola): 95% | inhibition of Verticillium dahliae (Verticillium dahliae): 96% | inhibition of Phytophthora cinnamomi (Phytophthora cinnamomi): 97% | inhibition of Pythium ultimum (Pythium ultimum): 100% | inhibition of Trichoderma viridae (Trichoderma viridae): 67% | inhibition of Sclerotinia sclerotiorum (Sclerotinia sclerotiorum): 80% | inhibition of Aspergillus fumigatus (Aspergillus fumigatus): 80% | inhibition of Fusarium subglutinans (Fusarium subglutinans): 67%

CC(=O)OCC(C)C [Isobutyl Acetate]
growth of Escherichia coli (Escherichia coli): Inhibited | growth of Bacillus subtilus (Bacillus subtilus): Inhibited | growth of Candida albicans (Candida albicans): Growth Observed | growth of Saccharomyces cerevicae (Saccharomyces cerevicae): Growth Observed | inhibition of Rhizoctonia solani (Rhizoctonia solani): 57% | inhibition of Cercospora beticola (Cercospora beticola): 95% | inhibition of Verticillium dahliae (Verticillium dahliae): 60% | inhibition of Phytophthora cinnamomi (Phytophthora cinnamomi): 67% | inhibition of Pythium ultimum (Pythium ultimum): 100% | inhibition of Trichoderma viridae (Trichoderma viridae): 20% | inhibition of Sclerotinia sclerotiorum (Sclerotinia sclerotiorum): 20% | inhibition of Aspergillus fumigatus (Aspergillus fumigatus): 0% | inhibition of Fusarium subglutinans (Fusarium subglutinans): 67%

CCCC(=O)OCC(C)C [Isobutyl Butyrate]
growth of Escherichia coli (Escherichia coli): No Growth | growth of Bacillus subtilus (Bacillus subtilus): No Growth | growth of Candida albicans (Candida albicans): Growth Observed | growth of Saccharomyces cerevicae (Saccharomyces cerevicae): Growth Observed | inhibition of Rhizoctonia solani (Rhizoctonia solani): 100% | inhibition of Cercospora beticola (Cercospora beticola): 100% | inhibition of Verticillium dahliae (Verticillium dahliae): 96% | inhibition of Phytophthora cinnamomi (Phytophthora cinnamomi): 33% | inhibition of Pythium ultimum (Pythium ultimum): 100% | inhibition of Trichoderma viridae (Trichoderma viridae): 47% | inhibition of Sclerotinia sclerotiorum (Sclerotinia sclerotiorum): 70% | inhibition of Aspergillus fumigatus (Aspergillus fumigatus): 0% | inhibition of Fusarium subglutinans (Fusarium subglutinans): 33%
